From patent US5043154A, “Antibacterial, antiplaque, anticalculus oral composition” (priority 1989, dated 1991)

Legend:
[1] = human clinical tests, reduction of plaque formation; assay type: in vivo
[2] = tested on: four dental plaque organisms; test: MIC test on the four dental plaque organisms, summary in words; assay type: cell-based; details: without TCHE
Protocol: (§1) Slurries and solutions described below are prepared to determine effectiveness in terms of minimum inhibitory concentration (MIC) of various antibacterial agents against a variety of oral bacterial organisms implicated in formation of plaque and leading to gingivitis on dental surfaces. Soft plaque contains about 1.7×10^11 organism/gm. (net weight). The antibacterial agents are admixed with anionic materials, particularly anionic surface active agent often commonly employed in oral compositions and polyphosphate anticalculus agent.
(§2) Minimum inhibitory concentration (MIC) of antibacterial agent is used to evaluate the efficacy of the agent in vitro. […] The smaller the MIC value the greater is the efficacy of the antibacterial agent to inhibit the growth of the bacteria. The in vitro MIC data is related to the efficacy of the dentifrice in vivo since retention and release of antibacterial agent into the oral cavity after toothbrushing is in the range of mcg/ml.

Streptococcus mutans = test: Minimum inhibitory concentration (MIC) against Streptococcus mutans, in vitro; assay type: cell-based
Protocol: as §1, §2

Bacteriodes intermedius = test: Minimum inhibitory concentration (MIC) against Bacteriodes intermedius, in vitro; assay type: cell-based
Protocol: as §1, §2

Bacteriodes gingivalis [3] = test: Minimum inhibitory concentration (MIC) against Bacteriodes gingivalis, in vitro; assay type: cell-based
Protocol: as §1, §2

[4] = tested on: Actinobacillus actinomycetemcomitans; test: Minimum inhibitory concentration (MIC) against Actinobacillus actinomycetemcomitans, in vitro; assay type: cell-based
Protocol: as §1, §2

Bacteriodes gingivalis [5] = test: inhibition of growth of Bacteriodes gingivalis by dentifrice extracts; assay type: cell-based; details: dentifrice containing anionic surfactant plus pyrophosphate with enzyme inhibitors Gantrez and NaF
Protocol: The dentifrice described in Example 3A is compared with the same composition except without any TCHE and with added 0.50 parts of water. Aqueous extracts of each dentifrice are prepared as follows: 50 ml of distilled water is added to 1.0 gm of each dentifrice, mixed well for a couple of hours with stirring bar and centrifuged, after which the supernatant is collected as aqueous extract. Antibacterial activity of the dentifrice extracts are evaluated on Bacteriodes gingivalis.

[6] = 0.5% TCHE, 1% SLS, 1% Gantrez, 2% Pyrophosphate and 0.2% NaF in water

CC(C)(C)CC(C)(C)c1ccc(OCCOCC[N+](C)(C)Cc2ccccc2)cc1 [BTC, benzethonium chloride]
reducing plaque formation ([1]; 0.075% BTC and 1% pyrophosphate dissolved in water): is not | reducing plaque formation ([1]; 0.075% BTC dissolved in water): effective in reducing plaque formation

N=C(NCCCCCCNC(=N)NC(=N)Nc1ccc(Cl)cc1)NC(=N)Nc1ccc(Cl)cc1 [CH, chlorhexidine digluconate]
reducing plaque formation ([1]; 0.1% CH and 1% sodium N-lauroyl sarcosinate dissolved in water): is not | reducing plaque formation ([1]; 0.1% CH dissolved in water): effective in reducing plaque formation

CCCCCCCCCCCCOS(=O)(=O)[O-].[Na+] [SLS, sodium lauryl sulfate]
antibacterial effect [2]: ineffective

Oc1cc(Cl)ccc1Oc1ccc(Cl)cc1Cl [TCHE, 2,4,4'-trichloro-2'-hydroxydiphenyl ether]
Minimum Inhibition Concentration (MIC), Streptococcus mutans (Streptococcus mutans; 0.5% TCHE and 1% SLS in water): 25.0 µg/mL | Minimum Inhibition Concentration (MIC), Streptococcus mutans (Streptococcus mutans; [6]): 25.0 µg/mL | Minimum Inhibition Concentration (MIC), Bacteriodes intermedius (Bacteriodes intermedius; 0.5% TCHE and 1% SLS in water): 2.5 µg/mL | Minimum Inhibition Concentration (MIC), Bacteriodes intermedius (Bacteriodes intermedius; [6]): 2.5 µg/mL | Minimum Inhibition Concentration (MIC), Bacteriodes gingivalis (Bacteriodes gingivalis [3]; 0.5% TCHE and 1% SLS in water): 2.5 µg/mL | Minimum Inhibition Concentration (MIC), Bacteriodes gingivalis (Bacteriodes gingivalis [3]; [6]): 2.5 µg/mL | Minimum Inhibition Concentration (MIC), Actinobacillus actinomycetemcomitans ([4]; 0.5% TCHE and 1% SLS in water): 5.0 µg/mL | Minimum Inhibition Concentration (MIC), Actinobacillus actinomycetemcomitans [4, 6]: 5.0 µg/mL | compatibility in dentifrice composition (Bacteriodes gingivalis [5]): compatible
